Results published in US9790235B2, “MK2 inhibitors and uses thereof” (Celgene CAR LLC, priority 2014, dated 2017).
Like-named read-outs stand apart in the source and are kept apart here.

Experiments:
[1] = biological target: p38α activated, mitogen-activated protein kinase-activated protein kinase 2 (MAPKAP-K2 or MK2) enzyme (Homo sapiens (Human), UniProt P49137); test: MK2 Omnia continuous-read kinase assay for compound potency; format: biochemical
From the text: Mitogen-Activated Protein Kinase-Activated Protein Kinase 2 Omnia® Assay for Compound Potency Assessment:
The protocol below describes a continuous-read kinase assay optimized to measure potency of compounds against p38α activated, mitogen-activated protein kinase-activated protein kinase 2 (MAPKAP-K2 or MK2) enzyme. Further details of this assay are described by Life Technologies, Carlsbad, Calif. on their website at the following URL: http://tools.lifetechnologies.com/content/sfs/manuals/omnia_kinase_assay_man.pdf.
[Reagent] used: • [MK-2]=0.4 nM, • [ATP]=10 μM and • [ST3-Sox]=10 μM (ATP^appKM=10 μM)
Kinase reactions were started with the addition of 45 μL of the ATP-peptide substrate S/T3-Sox mix and monitored every 71 seconds for 120 minutes at λex360/λem485 in a Synergy H4 plate reader from BioTek (Winooski, Vt.) at room temperature.
Background signals from the no enzyme control wells were subtracted from all progress curves. The initial linear portions of the net progress curves were fit according to a linear equation to yield the slope and percentage of inhibition (% inhibition) at each compound concentration. The net progress curves obtained during the first two hours of reactions were also fit according to an ascending single-exponential equation (Eq. 1) to yield kobs values at each compound concentration. Plots of % Inhibition versus inhibitor concentrations were fit according to a dose-response equation (Eq. 2) to generate IC50 and Hill slope values while plots of kobs versus inhibitor concentration were fit according to Equation 3 (Eq. 3) to generate apparent kinact/KI values using the GraphPad PRISM software (Version 6.00; GraphPad San Diego, Calif.).
[formula] where F is the fluorescence intensity from the plate reader, V0 is a constant reflecting the relationship between the instrument readout and product concentration, t is time, e is Euler's number, and kobs is the observed inactivation rate constant.
[formula] where % Inhibition is percentage of inhibition, IC50 is half maximal inhibitory concentration, [I] is the inhibitor concentration, and n is the Hill slope.

[2] = biological target: T1, MK2 (Homo sapiens (Human), UniProt P49137)
T1 sequence (P49137 whole entry): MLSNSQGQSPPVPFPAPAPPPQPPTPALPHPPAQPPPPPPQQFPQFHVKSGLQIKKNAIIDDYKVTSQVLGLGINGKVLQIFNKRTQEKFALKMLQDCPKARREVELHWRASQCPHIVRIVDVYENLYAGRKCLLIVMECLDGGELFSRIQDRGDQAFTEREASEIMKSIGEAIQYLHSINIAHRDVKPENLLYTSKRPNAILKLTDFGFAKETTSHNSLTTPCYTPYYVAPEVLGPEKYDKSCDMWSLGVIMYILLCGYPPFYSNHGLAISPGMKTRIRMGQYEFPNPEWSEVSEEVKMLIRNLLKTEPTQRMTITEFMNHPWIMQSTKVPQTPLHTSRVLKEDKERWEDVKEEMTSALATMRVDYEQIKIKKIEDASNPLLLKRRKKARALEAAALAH

[3] = biological target: T1, MK2; test: MK2 cellular assay, total and phospho-Hsp27 (Serine 78) by MSD ELISA (Thp1); format: cell-based
Method: MK2 Cellular Assay—Detection of Total and Phospho-Hsp27 (Serine 78) by MSD ELISA (Thp1)
Compounds of the invention were assayed in Thp-1 human acute monocytic leukemia cells to measure inhibition of MK2 activity. Thp-1 cells were grown in culture medium containing RPMI/10% FBS (fetal bovine serum)/0.05 mM 2-mercaptoethanol. 72 hours prior to the assay, 8×10^4 cells per well were plated in a 96 well flat bottom plate along with 10 ng/mL phorbol 12-myristate 13-acetate (PMA). Cells were cultured in an incubator at 37° C. until needed for the assay. Cell plate media was replaced with culture media just prior to assay while compound dilutions were being made.
Stock solutions of test compound, 1 mM in DMSO, were prepared. 0.9 μl of test compound was added to 300 μl cell media for a starting concentration of 3000 nM. […] Cell plate media was discarded, followed by addition of 100 μl of the compound containing media. The resulting preparation was incubated at 37° C. for 1 hour.
Test compound-containing cell assay media was removed and the cells were washed once with cell assay media. Cell assay media containing 50 ng/mL LPS (lipopolysaccharide) was added to the each well and incubated for 45 minutes. Following LPS incubation, the cells were washed once with PBS (phosphate-buffered saline) and lysed with 60 μl Cell Extraction Buffer (Invitrogen #FNN0011) plus protease and phosphatase inhibitors. The plate was then stored at −80° C. until further analysis.
The MULTI-SPOT Phospho(Ser78)/Total HSP27 ELISA Assay kit was purchased from Meso Scale […] (MSD; catalog #K15128D). […] The pre-coated MSD plate was blocked with 150 μL/well of 3% BSA in MSD wash buffer. The preparation was placed on a shaker at room temperature for an hour. While the ELISA plate was blocked, the cell assay plate stored at −80° C. was placed on a shaker at 4° C. for 1 hour to thaw.
The blocked MSD plate was washed on a plate washer, tapping out the last bit of wash solution, followed by addition of 30 μl of the lysate from the cell assay plate. The preparation was covered and incubated for 1 hour at room temperature. The lysate was removed, the plate was washed 3 times on a plate washer and the last bit of wash buffer was tapped out and replaced with 25 μl/well detection antibody (anti-total HSP27 conjugated with an electrochemiluminescent compound, MSD SULFO-TAG label, supplied in kit) made in 1% BSA/MSD wash buffer. The plate was incubated for 1 hour at room temperature on a shaker, followed by 3 washes. The last bit of wash buffer was tapped out. 150 μl/well 1×MSD read buffer was added (4× read buffer supplied with kit) and the plate was analyzed on the MSD SECTOR® Imager for analysis. The SECTOR® Imager measures intensity of emitted light to provide a quantitative measure of phosphorylated HSP27 (Ser78) and total HSP27 present in the sample. The relative percent phosphoprotein in a sample is calculated by dividing the Phospho-HSP27 signal intensity over the total HSP27 signal intensity measured in each well.

[4] = [MK-2]=0.4 nM, [ATP]=10 μM, [ST3-Sox]=10 μM, read-out: MK2 IC50
[5] = percentage of modified protein after 60 minutes at room temperature, 10-fold excess of compound, MALDI (I-1 to I-50), magnetic bead MALDI (I-51 to I-129)
[6] = Thp-1 cells, 1 hour compound, 50 ng/mL LPS 45 minutes, p-HSP27 (Ser78)/total HSP27, read-out: pHSP27 signaling EC50
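Wherever Mass Modification is given: covalent binding read from centroid mass shift of compound-treated versus untreated intact MK2, shift divided by compound molecular weight, giving fraction of total protein bound.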

p38α activated, mitogen-activated protein kinase-activated protein kinase 2 (MAPKAP-K2 or MK2) enzyme, sequence (P49137 whole entry): as above

SMILES | IC50 [1, 4] | Mass Modification [2, 5] | EC50 [3, 6] | IC50 ([1]; read-out: MK2 IC50) | Mass Modification [2] | IC50 [1] | EC50 [3]
O=C1N[C@H](CO)CNc2c1sc1ccc3nc(Nc4cc(F)ncn4)ccc3c21 [I-17, (S)-3-((6-fluoropyrimidin-4-yl)amino)-10-(hydroxymethyl)-9,10,11,12-tetrahydro-8H-[1,4]diazepino[5′,6′:4,5]thieno[3,2-f]quinolin-8-one] | < 0.1 µM | F (mass modification of 31-69%) | > 1 µM |  |  |  | 
CCOC(=O)c1cnc(Cl)nc1Nc1ccc2c(ccc3sc4c(c32)NC[C@@H](C)NC4=O)n1 [I-18, (R)-ethyl 2-chloro-4-((10-methyl-8-oxo-9,10,11,12-tetrahydro-8H-[1,4]diazepino[5′,6′:4,5]thieno[3,2-f]quinolin-3-yl)amino)pyrimidine-5-carboxylate] | < 0.1 µM | F (mass modification of 31-69%) | 0.101 to 0.5 µM |  |  |  | 
O=C1N[C@H](CO)CNc2c1sc1ccc3nc(Nc4cc(Cl)ncn4)ccc3c21 [I-22, (S)-3-((6-chloropyrimidin-4-yl)amino)-10-(hydroxymethyl)-9,10,11,12-tetrahydro-8H-[1,4]diazepino[5′,6′:4,5]thieno[3,2-f]quinolin-8-one] | < 0.1 µM | F (mass modification of 31-69%) | 0.501 to 0.999 µM |  |  |  | 
C[C@@H]1CNc2c(sc3ccc4nc(Nc5nc(Cl)ncc5C(=O)N5CC[C@@H](N(C)C)C5)ccc4c23)C(=O)N1 [I-24, (R)-3-((2-chloro-5-((R)-3-(dimethylamino)pyrrolidine-1-carbonyl)pyrimidin-4-yl)amino)-10-methyl-9,10,11,12-tetrahydro-8H-[1,4]diazepino[5′,6′:4,5]thieno[3,2-f]quinolin-8-one] | 0.501 to 0.999 µM | G (mass modification ≦30%) | > 1 µM |  |  |  | 
C[C@@H]1CNc2c(sc3ccc4nc(Nc5cc(Cl)ncc5C#N)ccc4c23)C(=O)N1 [I-25, (R)-6-chloro-4-((10-methyl-8-oxo-9,10,11,12-tetrahydro-8H-[1,4]diazepino[5′,6′:4,5]thieno[3,2-f]quinolin-3-yl)amino)nicotinonitrile] |  |  | < 0.1 µM | < 0.1 µM | F (key: E: mass modification of ≧70%; F: mass modification of 31-69%; G: mass modification ≦30%) |  | 
NC[C@@H]1CNc2c(sc3ccc4nc(Nc5cc(F)ncn5)ccc4c23)C(=O)N1 [I-26, (R)-10-(aminomethyl)-3-((6-fluoropyrimidin-4-yl)amino)-9,10,11,12-tetrahydro-8H-[1,4]diazepino[5′,6′:4,5]thieno[3,2-f]quinolin-8-one] | < 0.1 µM | E (mass modification of ≧70%) | > 1 µM |  |  |  | 
C[C@@H]1CNc2c(sc3ccc4nc(Nc5cc(F)ncc5C#N)ccc4c23)C(=O)N1 [I-27, (R)-6-fluoro-4-((10-methyl-8-oxo-9,10,11,12-tetrahydro-8H-[1,4]diazepino[5′,6′:4,5]thieno[3,2-f]quinolin-3-yl)amino)nicotinonitrile] | < 0.1 µM | G (mass modification ≦30%) | < 0.1 µM |  |  |  | 
NC[C@@H]1CNc2c(sc3ccc4nc(Nc5cc(Cl)ncn5)ccc4c23)C(=O)N1 [I-28, (R)-10-(aminomethyl)-3-((6-chloropyrimidin-4-yl)amino)-9,10,11,12-tetrahydro-8H-[1,4]diazepino[5′,6′:4,5]thieno[3,2-f]quinolin-8-one] | < 0.1 µM | E (mass modification of ≧70%) | > 1 µM |  |  |  | 
C[C@@H]1CNc2c(sc3ccc4nc(Nc5cc(F)ncc5C(N)=O)ccc4c23)C(=O)N1 [I-29, (R)-6-fluoro-4-((10-methyl-8-oxo-9,10,11,12-tetrahydro-8H-[1,4]diazepino[5′,6′:4,5]thieno[3,2-f]quinolin-3-yl)amino)nicotinamide] | < 0.1 µM | G (mass modification ≦30%) | > 1 µM |  |  |  | 
NC(=O)c1cnc(Cl)nc1Nc1ccc2c(ccc3sc4c(c32)NC[C@@H](CO)NC4=O)n1 [I-30, (S)0-2-chloro-4-((10-(hydroxymethyl)-8-oxo-9,10,11,12-tetrahydro-8H-[1,4]diazepino[5′,6′:4,5]thieno[3,2-f]quinolin-3-yl)amino)pyrimidine-5-carboxamide] | < 0.1 µM | E (mass modification of ≧70%) | 0.101 to 0.5 µM |  |  |  | 
C[C@@H]1CNc2c(sc3ccc4nc(N(CCN(C)C)c5cc(F)ncn5)ccc4c23)C(=O)N1 [I-33, (R)-3-((2-(dimethylamino)ethyl)(6-fluoropyrimidin-4-yl)amino)-10-methyl-9,10,11,12-tetrahydro-8H-[1,4]diazepino[5′,6′:4,5]thieno[3,2-f]quinolin-8-one] |  | F (mass modification of 31-69%) |  |  |  | 0.501 to 0.999 µM | > 1 µM
C[C@@H]1CNc2c(sc3ccc4nc(N(C)c5nc(Cl)ncc5C(N)=O)ccc4c23)C(=O)N1 [I-34, (R)-2-chloro-4-(methyl(10-methyl-8-oxo-9,10,11,12-tetrahydro-8H-[1,4]diazepino[5′,6′:4,5]thieno[3,2-f]quinolin-3-yl)amino)pyrimidine-5-carboxamide] | 0.501 to 0.999 µM | G (mass modification ≦30%) | > 1 µM |  |  |  | 
CNC[C@@H]1CNc2c(sc3ccc4nc(Nc5cc(F)ncn5)ccc4c23)C(=O)N1 [I-35] | 0.101 to 0.5 µM | F (mass modification of 31-69%) | 0.501 to 0.999 µM |  |  |  | 
C[C@@H]1CNc2c(sc3ccc4nc(N(C)c5cc(F)ncn5)ccc4c23)C(=O)N1 [I-38, (R)-3-((6-fluoropyrimidin-4-yl)(methyl)amino)-10-methyl-9,10,11,12-tetrahydro-8H-[1,4]diazepino[5′,6′:4,5]thieno[3,2-f]quinolin-8-one] | < 0.1 µM | G (mass modification ≦30%) |  |  |  |  | > 1 µM
C[C@@H]1CNc2c(sc3ccc4nc(Nc5nc(F)cc(OC6COC6)n5)ccc4c23)C(=O)N1 [I-42, (R)-3-((4-fluoro-6-(oxetan-3-yloxy)pyrimidin-2-yl)amino)-10-methyl-9,10,11,12-tetrahydro-8H-[1,4]diazepino[5′,6′:4,5]thieno[3,2-f]quinolin-8-one] | < 0.1 µM | G (mass modification ≦30%) |  |  |  |  | 0.501 to 0.999 µM
